{"source": "patent US20240245685A1", "about": "“PHOSPHODIESTERASE-5 INHIBITOR COMBINATIONS, METHODS OF MAKING, AND METHODS OF USE THEREOF” (VK Research Associates Inc, priority 2020, published 2024)", "origin": "cited, not measured here", "key": {"[1]": {"settings": "for median time to maximum concentration (t max): oral administration"}, "[2]": {"assay": "not given", "remark": "listed apart in the source"}, "[3]": {"settings": "oral tadalafil therapy"}}, "note": "Read-outs that look alike come from different tables or passages of the source.", "data": [{"compound": "COc1ccc(CN=c2[nH]c(N3CCC[C@H]3CO)ncc2C(=O)NCc2ncccn2)cc1Cl", "note": "[avanafil]", "values": [{"measurement": "absorption profile when administered with a high-fat meal", "setting": "[1]", "result": "not found"}]}, {"compound": "CCCc1nn(C)c2c(=O)[nH]c(-c3cc(S(=O)(=O)N4CCN(C)CC4)ccc3OCC)nc12", "note": "[sildenafil]", "values": [{"measurement": "median time to maximum concentration (t max)", "setting": "[1]", "result": 1, "unit": "h"}]}, {"compound": "CN1CC(=O)N2[C@H](c3ccc4c(c3)OCO4)c3[nH]c4ccccc4c3C[C@@H]2C1=O", "note": "[tadalafil]", "values": [{"measurement": "absorption profile when administered with a high-fat meal", "setting": "[1]", "result": "not found"}, {"measurement": "Dyspepsia incidence", "setting": "tadalafil 5 mg", "result": 4, "unit": "%"}, {"measurement": "Headache incidence", "setting": "tadalafil 5 mg", "result": 11, "unit": "%"}, {"measurement": "Dyspepsia incidence", "setting": "tadalafil 10 mg", "result": 8, "unit": "%"}, {"measurement": "Headache incidence", "setting": "tadalafil 10 mg", "result": 11, "unit": "%"}, {"measurement": "Dyspepsia incidence", "setting": "tadalafil 20 mg", "result": 10, "unit": "%"}, {"measurement": "Headache incidence", "setting": "tadalafil 20 mg", "result": 15, "unit": "%"}, {"measurement": "Dyspepsia Duration", "setting": "[2]; maximum doses", "result": 15.5, "unit": "h"}, {"measurement": "Dyspepsia Mean Duration", "setting": "[2]; maximum doses", "result": 11.2, "unit": "h"}, {"measurement": "Headache Duration", "setting": "[2]; maximum doses", "result": 24.3, "unit": "h"}, {"measurement": "Headache Mean Duration", "setting": "[2]; maximum doses", "result": 17.0, "unit": "h"}, {"measurement": "duration of side effects versus sildenafil", "setting": "[2]; patients taking tadalafil versus sildenafil", "result": "more prolonged"}, {"measurement": "frequency of headache and dyspepsia versus sildenafil", "setting": "[2]; tadalafil versus sildenafil", "result": "more common"}, {"measurement": "duration of delayed onset side effects, e.g. gastritis and back pain", "setting": "[3]", "result": "up to 3 hours"}]}, {"compound": "CCCc1nc(C)c2c(=O)[nH]c(-c3cc(S(=O)(=O)N4CCN(CC)CC4)ccc3OCC)nn12", "note": "[vardenafil]", "values": [{"measurement": "median time to maximum concentration (t max)", "setting": "[1]", "result": 1, "unit": "h"}]}]}
